Assay results reported in patent publication US4266048A, “Synthesis of analogs of 3'-phosphoadenosine 5'-phosphosulfate (PAPS)” (The United States of America as represented by the …, priority 1978, dated 1981).
Structures can show the parent of a compound that is named as a salt. Values belong to the molecule of their own block, whether it stands above or below them.

Legend:
[1] = target: T1, bovine adrenal estrogen sulfotransferase (EC 2.8.2.4) (Bos taurus, UniProt P19217); experiment: Relative sulfurylation rate (RSR): enzymic transfer of sulfate from analogs IV and V to estrone at saturating steroid; settings: for RSR (in words): sulfurylation of estrone relative to IVa (RSR=1); for reduction in RSR relative to IVa: 200 μM, may be a result of inhibition by coproducts; for calculated level of coproduct produced: nucleotide at 200 μM
T1 sequence (P19217 1-295): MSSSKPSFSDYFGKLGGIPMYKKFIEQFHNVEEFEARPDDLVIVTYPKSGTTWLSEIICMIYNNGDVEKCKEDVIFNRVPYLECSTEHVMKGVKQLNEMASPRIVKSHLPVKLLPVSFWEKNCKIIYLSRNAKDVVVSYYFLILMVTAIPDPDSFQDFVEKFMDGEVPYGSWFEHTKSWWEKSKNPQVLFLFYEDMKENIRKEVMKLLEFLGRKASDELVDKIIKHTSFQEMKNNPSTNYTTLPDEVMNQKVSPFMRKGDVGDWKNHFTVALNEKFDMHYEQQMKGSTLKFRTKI

[2] = target: T1, bovine adrenal estrogen sulfotransferase (EC 2.8.2.4); parameters: Ki data from Horwitz et al 1977; settings: cited from earlier work; for enzyme affinity / effect of coproduct (in words) / Ki of coproduct: estrogen sulfotransferase; for enzyme affinity / effect of coproduct (in words): discussion of Ki values; for Ki of coproduct: unit not given
[3] = target: T1, bovine adrenal estrogen sulfotransferase (EC 2.8.2.4); experiment: Sulfate transfer to [6,7-3H2]estrone by Compounds IVa and Va (biological activity); type: biochemical
Procedure: The biological activity of IV (like PAPS) may be measured by sulfate transfer to [6,7-^3 H2 ]estrone as mediated by bovine adrenal estrone sulfotransferase (3'-phosphoadenylylsulfate:estrone 3-sulfotransferase, EC 2.8.2.4) and is identical with that obtained with a sample of IV prepared by an established biochemical procedure.
Biological activity of IVa and Va was determined by sulfate transfer to [6,7-^3 H2 ]estrone in the presence of bovine adrenal estrogen sulfotransferase (E.C. 2.8.2.4).
Bovine spleen phosphodiesterase II (E.C. 3.1.4.18) and ribonuclease T2 were purchased from Sigma Chemical Company. Bovine adrenal estrogen sulfotransferase (E.C. 2.8.2.4.) was isolated and purified as described by Adams et al, Biochim. Biophys. Acta, 370:160-188 (1974). [^35 S]PAPS and [6,7-^3 H2 ]-estrone were purchased from New England Nuclear Corp.
Sulfation of estrone with synthetic Compound IVa (PAPS) was determined using the procedure described in the article by Rozhin et al, ante. Sulfation by Compound Va was as follows. The ability of Compound Va to donate its sulfate to estrone was determined with [6,7-^3 H2 ]estrone (1.3·10^6 dpm/4 nmol) by modification of the above-mentioned Rozhin et al method in which Compound Va (0.11 mM) […] for Compound IVa.
After termination of the incubation, excess free [^3 H]estrone was extracted three times with 0.3 ml of ethyl ether and the aqueous sample adjusted to 0.5 ml with redistilled methanol. An aliquot (25 μl) was applied, together with 15 μg of methanolic estrone sulfate marker, to type SG chromatography media (Gelman Instrument Co., Ann Arbor, Michigan) and developed with chloroform/acetone/acetic acid (110:35:6). Estrone sulfate was visualized by spraying with methylene blue and the spot punched out with a cork borer and counted in 10 ml of Bray's dioxane scintillation solution. […] The amount of steroid sulfate ester produced was calculated utilizing the specific activity of [^3 H]estrone.

[4] = Storage stability; type: physicochemical; settings: 50% ethanol at -20° C.
Procedure: Fractions containing Compound IVa were pooled and the buffer was removed in the usual manner. The product was redissolved in approx. 3 ml of H2 O and the solution was adjusted to pH 7 with dilute NH4 OH. Treatment of a small aliquot of the latter with an equal volume of 0.2 M HCl at 37° C. for 1.75 h gave adenosine 3',5'-diphosphate as the sole detectable product in Systems S1 and S2. Compound IVa was homogeneous in S1, S2, E1 and E2. […] Compound IVa gave yields of 68-72% based on Compound IIa.

[5] = target: T1, bovine adrenal estrogen sulfotransferase (EC 2.8.2.4); experiment: Inhibition / affinity of desulfurylated nucleotides (coproducts) on estrogen sulfotransferase; type: biochemical; parameters: Ki data from Horwitz et al 1977; settings: product of the reaction
From the text: ^b Data taken from Tables II and III of Horwitz et al, Biochim.

Compound: Nc1ncnc2c1ccn2[C@@H]1O[C@H](COP(=O)(O)OS(=O)(=O)O)[C@@H](O)[C@H]1OP(=O)(O)O [2'P(7-deaza-Ado)5'PS, tubercidin 2'-phosphate 5'-phosphosulfate]
RSR (in words) [1]: relatively low

Compound: Nc1ncnc2c1ccn2[C@@H]1O[C@H](COP(=O)(O)O)[C@@H](O)[C@H]1OP(=O)(O)O [2'P(7-deaza-Ado)5'P]
enzyme affinity / effect of coproduct (in words) [2]: has an effect on the estrogen sulfotransferase reaction
Ki of coproduct [2]: compares favorably with that of 3'PAdo5'P

Compound: Nc1ncnc2c1ncn2[C@@H]1O[C@H](COP(=O)(O)O)[C@@H](O)[C@H]1OP(=O)(O)O [2'PAdo5'P, adenosine 2',5'-diphosphate]
Ki of desulfurylated nucleotide (coproduct) ([2]; data taken from Horwitz et al, Biochim. Biophys. Acta, 480:376-381 (1977)): .infin.
enzyme affinity / effect of coproduct (in words) [2]: weak and devoid of activity
Ki of coproduct [2]: .infin.

RSR at 200 μM (expected) ([1]; expected value at 200 μM concentration): ~0.29
saturation concentration ([1]; stated in Table III footnote c): 100 µM
activity relative to the natural isomer ([3]; Iso-PAPS, sulfate transfer to [6,7-3H2]estrone): approximately one-third
activity relative to the natural isomer (IVa) ([3]; sulfate transfer to estrone): approximately one-third
Compound: Nc1ncnc2c1ncn2[C@@H]1O[C@H](COP(=O)(O)OS(=O)(=O)O)[C@@H](O)[C@H]1OP(=O)(O)O [2'PAdo5'PS, adenosine 2'-phosphate 5'-phosphosulfate]

Compound: Nc1ncnc2c1nc(Br)n2[C@@H]1O[C@H](COP(=O)(O)OS(=O)(=O)O)[C@@H](OP(=O)(O)O)[C@H]1O [3'P8-BrAdo5'PS, 8-bromoadenosine 3'-phosphate 5'-phosphosulfate]
reduction in RSR relative to IVa [1]: 14-15%
calculated level of coproduct produced [1]: 4 µM
RSR (in words) [1]: compare favorably with active sulfate itself
RSR (in words) ([1]; listed as IVb): the largest

Compound: Nc1ncnc2c1ccn2[C@@H]1O[C@H](COP(=O)(O)O)[C@@H](OP(=O)(O)O)[C@H]1O [3'P(7-deaza-Ado)5'P, tubercidin (4-amino-7-(β-D-ribofuranosyl)-7H-pyrrolo-[2,3-d]-pyrimidine) 3',5'-diphosphate]
enzyme affinity / effect of coproduct (in words) [2]: enhanced affinity

reduction in RSR relative to IVa [1]: 14-15%
calculated level of coproduct produced [1]: 4 µM
RSR (in words) ([1]; listed as IVe): the largest
Compound: Nc1ncnc2c1ccn2[C@@H]1O[C@H](COP(=O)(O)OS(=O)(=O)O)[C@@H](OP(=O)(O)O)[C@H]1O [3'P(7-deaza-Ado)5'PS, tubercidin 3'-phosphate 5'-phosphosulfate]
RSR (in words) ([1]; listed as 3'PTu5'PS): compare favorably with active sulfate itself

storage stability [4]: kept indefinitely
saturation curves for IV from two sources ([3]; IV 15-100 μM, [6,7-3H2]estrone 100 μM): essentially superimposable
activity compared with PAPS from enzymatic/biochemical procedure ([3]; sulfate transfer to [6,7-3H2]estrone, listed as IV): virtually identical
Compound: Nc1ncnc2c1ncn2[C@@H]1O[C@H](COP(=O)(O)OS(=O)(=O)O)[C@@H](OP(=O)(O)O)[C@H]1O [3'PAdo5'PS, adenosine 3'-phosphate 5'-phosphosulfate]

Compound: Nc1ncnc2c([C@@H]3O[C@H](COP(=O)(O)O)[C@@H](OP(=O)(O)O)[C@H]3O)n[nH]c12 [3'PFo5'P, formycin (7-amino-3-(β-D ribofuranosyl)pyrazolo-[4,3-d]-pyrimidine) 3',5'-diphosphate]
enzyme affinity / effect of coproduct (in words) [2]: intermediate affinity

Compound: Nc1ncnc2c([C@@H]3O[C@H](COP(=O)(O)OS(=O)(=O)O)[C@@H](OP(=O)(O)O)[C@H]3O)n[nH]c12 [3'PFo5'PS, formycin 3'-phosphate 5'-phosphosulfate]
RSR (in words) [1]: modest capacity to sulfurylate estrone

Compound: O=P(O)(O)OC[C@H]1O[C@@H](n2cnc3c(O)ncnc32)[C@H](O)[C@@H]1OP(=O)(O)O [3'PIno5'P, inosine 3',5'-diphosphate]
enzyme affinity / effect of coproduct (in words) [2]: substantial loss of enzyme affinity

Compound: O=c1[nH]cnc2c1ncn2[C@@H]1O[C@H](COP(=O)(O)OS(=O)(=O)O)[C@@H](OP(=O)(O)O)[C@H]1O [3'PIno5'PS, inosine 3'-phosphate 5'-phosphosulfate]
RSR (in words) [1]: low
RSR (in words) ([1]; listed as IVd): only minimal

Compound: O=P(O)(O)OC[C@H]1O[C@@H](n2cnc3cncnc32)[C@H](O)[C@@H]1OP(=O)(O)O [3'PPuo5'P, nebularine (9-β-D-ribofuranosylpurine) 3',5'-diphosphate]
enzyme affinity / effect of coproduct (in words) [2]: substantial loss of enzyme affinity

Compound: O=P(O)(O)O[C@H]1[C@@H](O)[C@H](n2cnc3cncnc32)O[C@@H]1COP(=O)(O)OS(=O)(=O)O [3'PPuo5'PS, nebularine 3'-phosphate 5'-phosphosulfate]
RSR (in words) [1]: low
RSR (in words) ([1]; listed as IVc): only minimal

effect on the estrogen sulfotransferase reaction [5]: little or no effect
Compound: C[C@]12CC[C@@H]3c4ccc(OS(=O)(=O)O)cc4CC[C@H]3[C@@H]1CCC2=O [Estrone sulfate]
